Experimental data from US8952024B2, “Herbicidal pyrimidone derivatives” (E I du Pont de Nemours and Company, priority 2009, dated 2015).

Tests used:
Type in all cases: in vivo
[1] = test system: ducksalad (Heteranthera limosa); assay: Test B flooded paddy test; settings: for Plant response rating, Flood, Ducksalad: 250 g ai/ha, flooded paddy test, visual rating on 0 to 100 scale (0 no effect, 100 complete control) after 13 to 15 days; for Plant response rating, Ducksalad: Flood (flooded paddy test), 13 to 15 days
Summary of the method: (§1)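 Seedlings reaching 2 leaves are flooded 3 cm deep; test material is delivered to that water, which stays at the same depth. Plants remain in a greenhouse 13–15 days and are then scored by eye versus controls from 0 to 100.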

rice (Oryza sativa) = assay: Test B flooded paddy test; settings: for Plant response rating, Flood, Rice: 250 g ai/ha, flooded paddy test, visual rating on 0 to 100 scale (0 no effect, 100 complete control) after 13 to 15 days; for Plant response rating, Rice: Flood (flooded paddy test), 13 to 15 days
Summary of the method: as §1

[2] = test system: umbrella sedge (Cyperus difformis); assay: Test B flooded paddy test; settings: for Plant response rating, Flood, Sedge, Umbrella: 250 g ai/ha, flooded paddy test, visual rating on 0 to 100 scale (0 no effect, 100 complete control) after 13 to 15 days; for Plant response rating, Sedge, Umbrella: Flood (flooded paddy test), 13 to 15 days
Summary of the method: as §1

[3] = test system: barnyardgrass (Echinochloa crus-galli); assay: Test B flooded paddy test; settings: for Plant response rating, Flood, Barnyardgrass: 250 g ai/ha, flooded paddy test, visual rating on 0 to 100 scale (0 no effect, 100 complete control) after 13 to 15 days; for Plant response rating, Barnyardgrass: Flood (flooded paddy test), 13 to 15 days
Summary of the method: as §1

[4] = test system: velvetleaf (Abutilon theophrasti); assay: Test A pre-/postemergence plant response
Source text: (§2) Seeds of barnyardgrass (Echinochloa crus-galli), large crabgrass (Digitaria sanguinalis), giant foxtail (Setaria faberii), morningglory (Ipomoea spp.), pigweed (Amaranthus retroflexus), velvetleaf (Abutilon theophrasti), wheat (Triticum aestivum) and corn (Zea mays) were planted into a blend of loam soil and sand and treated preemergence with a directed soil spray using test chemicals formulated in a non-phytotoxic solvent mixture which included a surfactant. At the same time these species were also treated with postemergence applications of test compounds formulated in the same manner.
(§3) Plants ranged in height from two to ten cm and were in the one- to two-leaf stage for the postemergence treatment. Treated plants and untreated controls were maintained in a greenhouse for approximately ten days, after which time all treated plants were compared to untreated controls and visually evaluated for injury. Plant response ratings, summarized in Table A, are based on a 0 to 100 scale where 0 is no effect and 100 is complete control. A dash (-) response means no test result.

[5] = test system: large crabgrass (Digitaria sanguinalis); assay: Test A pre-/postemergence plant response
Source text: as §2, §3

[6] = test system: wheat (Triticum aestivum); assay: Test A pre-/postemergence plant response
Source text: as §2, §3

[7] = test system: morningglory (Ipomoea spp.); assay: Test A pre-/postemergence plant response
Source text: as §2, §3

corn (Zea mays) = assay: Test A pre-/postemergence plant response
Source text: as §2, §3

[8] = test system: giant foxtail (Setaria faberii); assay: Test A pre-/postemergence plant response
Source text: as §2, §3

[9] = test system: pigweed (Amaranthus retroflexus); assay: Test A pre-/postemergence plant response
Source text: as §2, §3

[10] = test system: barnyardgrass (Echinochloa crus-galli); assay: Test A pre-/postemergence plant response
Source text: as §2, §3

[11] = 31 g ai/ha, scale of 0 to 100 where 0 is no effect and 100 is complete control
[12] = 62 g ai/ha, scale 0 to 100, 0 is no effect, 100 is complete control
[13] = 125 g ai/ha, scale 0 to 100, 0 is no effect, 100 is complete control
[14] = Postemergence, 125 g ai/ha, visual injury, 0 to 100 scale (0 no effect, 100 complete control), approx. ten days
[15] = Postemergence, 500 g ai/ha, 0 to 100 scale, 0 = no effect, 100 = complete control, approx. ten days
[16] = Preemergence, 125 g ai/ha, 0 to 100 scale, 0 = no effect, 100 = complete control
[17] = Preemergence, 500 g ai/ha, visual injury, 0 to 100 scale (0 no effect, 100 complete control), approx. ten days

## Cc1cccc(-n2c(-c3ccccc3)ncc(C(=O)C3=C(O)CCCC3=O)c2=O)c1 [Compound 18]
[1]
  Plant response rating, Flood, Ducksalad: 90
[1]; [11]
  Plant response rating, Ducksalad: 20
[1]; [12]
  Plant response rating, Ducksalad: 50
[1]; [13]
  Plant response rating, Ducksalad: 65
Rice (Oryza sativa)
  Plant response rating, Flood, Rice: 25
Rice (Oryza sativa); [11]
  Plant response rating, Rice: 10
Rice (Oryza sativa); [12]
  Plant response rating, Rice: 15
Rice (Oryza sativa); [13]
  Plant response rating, Rice: 25
[2]
  Plant response rating, Flood, Sedge, Umbrella: 85
[2]; [11]
  Plant response rating, Sedge, Umbrella: 0
[2]; [12]
  Plant response rating, Sedge, Umbrella: 30
[2]; [13]
  Plant response rating, Sedge, Umbrella: 50
[3]
  Plant response rating, Flood, Barnyardgrass: 50
[3]; [11]
  Plant response rating, Barnyardgrass: 10
[3]; [12]
  Plant response rating, Barnyardgrass: 20
[3]; [13]
  Plant response rating, Barnyardgrass: 20
[4]; [14]
  Velvetleaf plant response rating: 100
[4]; [15]
  Plant response rating, Velvetleaf: 100
[4]; [16]
  Plant response rating, Velvetleaf: 30
[4]; [17]
  Plant response rating, Velvetleaf: 100
[5]; [14]
  Crabgrass, Large plant response rating: 30
[5]; [15]
  Plant response rating, Crabgrass, Large: 80
[5]; [16]
  Plant response rating, Crabgrass, Large: 60
[5]; [17]
  Plant response rating, Crabgrass, Large: 100
[6]; [14]
  Wheat plant response rating: 0
[6]; [15]
  Plant response rating, Wheat: 50
[6]; [16]
  Plant response rating, Wheat: 0
[6]; [17]
  Plant response rating, Wheat: 40
[7]; [14]
  Morningglory plant response rating: 40
[7]; [15]
  Plant response rating, Morningglory: 100
[7]; [16]
  Plant response rating, Morningglory: 20
[7]; [17]
  Plant response rating, Morningglory: 70
Corn (Zea mays); [14]
  Corn plant response rating: 0
Corn (Zea mays); [15]
  Plant response rating, Corn: 20
Corn (Zea mays); [16]
  Plant response rating, Corn: 0
Corn (Zea mays); [17]
  Plant response rating, Corn: 20
[8]; [14]
  Foxtail, Giant plant response rating: 40
[8]; [15]
  Plant response rating, Foxtail, Giant: 90
[8]; [16]
  Plant response rating, Foxtail, Giant: 40
[8]; [17]
  Plant response rating, Foxtail, Giant: 90
[9]; [14]
  Pigweed plant response rating: 100
[9]; [15]
  Plant response rating, Pigweed: 100
[9]; [16]
  Plant response rating, Pigweed: 70
[9]; [17]
  Plant response rating, Pigweed: 100
[10]; [14]
  Barnyardgrass plant response rating: 20
[10]; [15]
  Plant response rating, Barnyardgrass: 90
[10]; [16]
  Plant response rating, Barnyardgrass: 10
[10]; [17]
  Plant response rating, Barnyardgrass: 100

## O=C1CCCC([O-])=C1C(=O)c1cnc(-c2ccccc2)n(-c2ccc(Cl)cc2)c1=O.[K+] [Compound 13]
[1]
  Plant response rating, Flood, Ducksalad: 95
[1]; [11]
  Plant response rating, Ducksalad: 0
[1]; [12]
  Plant response rating, Ducksalad: 0
[1]; [13]
  Plant response rating, Ducksalad: 0
Rice (Oryza sativa)
  Plant response rating, Flood, Rice: 25
Rice (Oryza sativa); [11]
  Plant response rating, Rice: 0
Rice (Oryza sativa); [12]
  Plant response rating, Rice: 0
Rice (Oryza sativa); [13]
  Plant response rating, Rice: 0
[2]
  Plant response rating, Flood, Sedge, Umbrella: 85
[2]; [11]
  Plant response rating, Sedge, Umbrella: 0
[2]; [12]
  Plant response rating, Sedge, Umbrella: 0
[2]; [13]
  Plant response rating, Sedge, Umbrella: 60
[3]
  Plant response rating, Flood, Barnyardgrass: 35
[3]; [11]
  Plant response rating, Barnyardgrass: 0
[3]; [12]
  Plant response rating, Barnyardgrass: 0
[3]; [13]
  Plant response rating, Barnyardgrass: 0
[4]; [14]
  Velvetleaf plant response rating: 100
[4]; [15]
  Plant response rating, Velvetleaf: 100
[4]; [16]
  Plant response rating, Velvetleaf: 80
[4]; [17]
  Plant response rating, Velvetleaf: 100
[5]; [14]
  Crabgrass, Large plant response rating: 30
[5]; [15]
  Plant response rating, Crabgrass, Large: 90
[5]; [16]
  Plant response rating, Crabgrass, Large: 60
[5]; [17]
  Plant response rating, Crabgrass, Large: 100
[6]; [14]
  Wheat plant response rating: 10
[6]; [15]
  Plant response rating, Wheat: 60
[6]; [16]
  Plant response rating, Wheat: 0
[6]; [17]
  Plant response rating, Wheat: 40
[7]; [14]
  Morningglory plant response rating: 0
[7]; [15]
  Plant response rating, Morningglory: 50
[7]; [16]
  Plant response rating, Morningglory: 0
[7]; [17]
  Plant response rating, Morningglory: 0
Corn (Zea mays); [14]
  Corn plant response rating: 0
Corn (Zea mays); [15]
  Plant response rating, Corn: 50
Corn (Zea mays); [16]
  Plant response rating, Corn: 0
Corn (Zea mays); [17]
  Plant response rating, Corn: 20
[8]; [14]
  Foxtail, Giant plant response rating: 30
[8]; [15]
  Plant response rating, Foxtail, Giant: 80
[8]; [16]
  Plant response rating, Foxtail, Giant: 50
[8]; [17]
  Plant response rating, Foxtail, Giant: 90
[9]; [14]
  Pigweed plant response rating: 80
[9]; [15]
  Plant response rating, Pigweed: 100
[9]; [16]
  Plant response rating, Pigweed: 40
[9]; [17]
  Plant response rating, Pigweed: 100
[10]; [14]
  Barnyardgrass plant response rating: 30
[10]; [15]
  Plant response rating, Barnyardgrass: 90
[10]; [16]
  Plant response rating, Barnyardgrass: 10
[10]; [17]
  Plant response rating, Barnyardgrass: 90
